Measurements from the supplement of paper PMC10627819.

What was measured:
[1] = system: S. aureus DSM 20231; assay: Bliss interaction score (quartile over a dose matrix) (fitness difference); higher = more antagonism (negative = synergy)
Summary of the method: (§1)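 The Bliss score takes observed fitness and subtracts the expected fitness, calculated as a product of single-drug fitness values. Those single-drug values were inferred from the combination data. Fitness is OD595 at entry into stationary phase divided by the plate's robust no-drug mean, capped at 1, and the score is summarised by quartiles across technical, biological and donor/recipient replicates.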

[2] = system: B. subtilis 168; assay: as above
Summary of the method: as §1

[3] = system: S. aureus Newman; assay: as above
Summary of the method: as §1

[4] = system: S. pneumoniae D39V; assay: as above
Summary of the method: as §1

[5] = system: S. aureus DSM 20231; assay: fitness (endpoint OD595 vs no drug) (fraction); higher = more growth
Summary of the method: (§2)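 Cultures at OD595 0.01 were dispensed into 384-well plates in TSB, LB Lennox or CY and incubated at 37 °C. Every 30 min for 14 h, OD595 was read and corrected by the first reading. Fitness is the optical density at entry into stationary phase relative to the robust mean of no-drug control wells, capped at 1.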

[6] = system: B. subtilis 168; assay: as above
Summary of the method: as §2

[7] = system: S. aureus Newman; assay: as above
Summary of the method: as §2

[8] = system: S. pneumoniae D39V; assay: as above
Summary of the method: as §2
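For Bliss interaction score (quartile over a dose matrix) in this document: first quartile when negative (synergy) and third quartile when positive (antagonism).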

CCC[C@@H]1C[C@@H](C(=O)N[C@@H]([C@H]2O[C@H](SC)[C@H](O)[C@@H](O)[C@H]2O)[C@H](C)Cl)N(C)C1 [Clindamycin] + Cc1cc(NS(=O)(=O)c2ccc(N)cc2)no1 [Sulfamethoxazol]
Conditions	Bliss interaction score
[1]	-0.0287
[2]	-0.0677
[3]	0.0865
[4]	-0.0442

fitness
Conditions	partner 1 µg/mL	partner 2 µg/mL	partner 4 µg/mL
[5], first compound 0.0625 µg/mL	0.0971	0.0985	0.0862
[5], first compound 0.125 µg/mL	0.0349	0.0282	0.0345
[6], first compound 0.0625 µg/mL	0.571	0.544	0.579
[6], first compound 0.125 µg/mL	0.422	0.395	0.431
[6], first compound 0.25 µg/mL	0.33	0.321	0.332
[7], first compound 0.0312 µg/mL	0.757	–	–
[7], first compound 0.125 µg/mL	0.149	–	–
[8], first compound 0.0125 µg/mL	0.687	0.711	0.739
[8], first compound 0.025 µg/mL	0.462	0.443	0.45
[8], first compound 0.05 µg/mL	0.206	0.191	0.219

one replicate
Conditions	fitness
[6], first compound 0.0039 µg/mL, partner 1 µg/mL	≥ 1
[6], first compound 0.0039 µg/mL, partner 2 µg/mL	≥ 1
[6], first compound 0.0039 µg/mL, partner 4 µg/mL	≥ 1
[6], first compound 0.0078 µg/mL, partner 1 µg/mL	0.884
[6], first compound 0.0078 µg/mL, partner 2 µg/mL	0.853
[6], first compound 0.0078 µg/mL, partner 4 µg/mL	0.868
[6], first compound 0.0156 µg/mL, partner 1 µg/mL	0.866
[6], first compound 0.0156 µg/mL, partner 2 µg/mL	0.981
[6], first compound 0.0156 µg/mL, partner 4 µg/mL	0.907
[6], first compound 0.0625 µg/mL, partner 0.5 µg/mL	0.666
[6], first compound 0.125 µg/mL, partner 0.5 µg/mL	0.466
[6], first compound 0.25 µg/mL, partner 0.5 µg/mL	0.363
[7], first compound 0.0312 µg/mL, partner 8 µg/mL	0.896
[7], first compound 0.0625 µg/mL, partner 8 µg/mL	0.934
[7], first compound 0.125 µg/mL, partner 8 µg/mL	0.709
[8], first compound 0.015 µg/mL, partner 1 µg/mL	0.873
[8], first compound 0.015 µg/mL, partner 2 µg/mL	0.914
[8], first compound 0.015 µg/mL, partner 4 µg/mL	0.812
[8], first compound 0.03 µg/mL, partner 1 µg/mL	0.783
[8], first compound 0.03 µg/mL, partner 2 µg/mL	0.777
[8], first compound 0.03 µg/mL, partner 4 µg/mL	0.717
[8], first compound 0.06 µg/mL, partner 1 µg/mL	0.64
[8], first compound 0.06 µg/mL, partner 2 µg/mL	0.69
[8], first compound 0.06 µg/mL, partner 4 µg/mL	0.621

COc1c(N2C[C@@H]3CCCN[C@@H]3C2)c(F)cc2c(=O)c(C(=O)O)cn(C3CC3)c12 [Moxifloxacin] + CN[C@H](CC(C)C)C(=O)N[C@H]1C(=O)N[C@@H](CC(N)=O)C(=O)N[C@H]2C(=O)N[C@H]3C(=O)N[C@H](C(=O)N[C@H](C(=O)O)c4cc(O)cc(O)c4-c4cc3ccc4O)[C@H](O)c3ccc(c(Cl)c3)Oc3cc2cc(c3O[C@@H]2O[C@H](CO)[C@@H](O)[C@H](O)[C@H]2O[C@H]2C[C@](C)(N)[C@H](O)[C@H](C)O2)Oc2ccc(cc2Cl)[C@H]1O [Vancomycin]
Conditions	Bliss interaction score
[1]	-0.0583
[2]	0.031
[3]	-0.0617
[4]	0.0942

Conditions	fitness
[5], first compound 0.0075 µg/mL, partner 0.1875 µg/mL	0.818
[5], first compound 0.0075 µg/mL, partner 0.375 µg/mL	0.854
[5], first compound 0.0075 µg/mL, partner 0.75 µg/mL	0.853
[5], first compound 0.015 µg/mL, partner 0.1875 µg/mL	0.745
[5], first compound 0.015 µg/mL, partner 0.375 µg/mL	0.761
[5], first compound 0.015 µg/mL, partner 0.75 µg/mL	0.84
[5], first compound 0.03 µg/mL, partner 0.1875 µg/mL	0.667
[5], first compound 0.03 µg/mL, partner 0.375 µg/mL	0.689
[5], first compound 0.03 µg/mL, partner 0.75 µg/mL	0.652
[7], first compound 0.0075 µg/mL, partner 0.1875 µg/mL	0.768
[7], first compound 0.0075 µg/mL, partner 0.375 µg/mL	0.75
[7], first compound 0.0075 µg/mL, partner 0.75 µg/mL	0.768
[7], first compound 0.015 µg/mL, partner 0.75 µg/mL	0.518
[7], first compound 0.03 µg/mL, partner 0.375 µg/mL	0.0717
[7], first compound 0.03 µg/mL, partner 0.75 µg/mL	0.0889
[8], first compound 0.0037 µg/mL, partner 0.03125 µg/mL	0.881
[8], first compound 0.005 µg/mL, partner 0.125 µg/mL	0.909
[8], first compound 0.0075 µg/mL, partner 0.03125 µg/mL	0.908
[8], first compound 0.0075 µg/mL, partner 0.0625 µg/mL	0.853
[8], first compound 0.0075 µg/mL, partner 0.125 µg/mL	0.753
[8], first compound 0.01 µg/mL, partner 0.125 µg/mL	0.92
[8], first compound 0.015 µg/mL, partner 0.03125 µg/mL	0.897
[8], first compound 0.015 µg/mL, partner 0.0625 µg/mL	0.848
[8], first compound 0.015 µg/mL, partner 0.125 µg/mL	0.689
[8], first compound 0.02 µg/mL, partner 0.125 µg/mL	0.913

fitness, [5], one replicate
Conditions	partner 0.1875 µg/mL	partner 0.375 µg/mL	partner 0.75 µg/mL
first compound 0.06 µg/mL	0.688	0.694	0.704
first compound 0.12 µg/mL	0.46	0.455	0.46
